Experiments:
[1] = test system: RBL-2H3 cells (rat basophilic leukemia cells); assay: Degranulation of mast cells activated by IgE antibody and antigen; assay type: cell-based; conditions: FIG. 3(A) and (B)
Method: In order to confirm whether or not the ceramide derivative compound according to the present invention suppresses activities of the mast cells, RBL-2H3 cells (rat basophilic leukemia cells) corresponding to one kind of mast cells were cultured in a DMEM medium containing 10% FBS in a 24-well plate, and then treated with the compound for 16 hours. In order to induce degranulation of the mast cells, the cells were treated with IgE antibody (0.2 μg/ml) and NP-BSA (0.1 μg/ml) for 1 hour, and then, concentrations of β-hexosaminidase and histamine released to the medium were measured. In detail, at the time of measuring the concentration of β-hexosaminidase, 50 μl of the medium was reacted together with 50 μl of p-nitrophenyl-nacetyl-β-d-glucosaminidine, (p-NAG, Sigma) at 37° C. for 2 hours, and then, the reaction was terminated by adding 200 μl of 0.2 M glycine (pH 10.6, Sigma). Absorbance at a wavelength of 405 nm was measured using a spectrometer. The concentration of histamine was measured using a HTRF histamine assay kit (Cisbio). […] Thereafter, fluorescence was measured at 665 nm and 620 nm and compensated by a ratio of 665 nm/620 nm, and then, the concentration of histamine in the cells was measured using a standard curve.

[2] = test system: RBL-2H3 cells (rat basophilic leukemia cells); assay: Degranulation of mast cells activated by ionomycin; assay type: cell-based; conditions: FIG. 2(A) and (B)
Method: In order to confirm whether or not the ceramide derivative compound according to the present invention suppresses activation of the mast cells, RBL-2H3 cells (rat basophilic leukemia cells) corresponding to one kind of mast cells were cultured in a DMEM medium containing 10% FBS in a 24-well plate, and then treated with the compound for 16 hours. In order to induce degranulation of the mast cells, the cells were treated with 2 μM ionomycin (Sigma), and after 30 minutes, concentrations of β-hexosaminidase and histamine released to the medium were measured. In detail, at the time of measuring the concentration of β-hexosaminidase, 50 μl of the medium was reacted together with 50 μl of p-nitrophenyl-nacetyl-β-d-glucosaminidine, (p-NAG, Sigma) at 37° C. for 2 hours, and then, the reaction was terminated by adding 200 μl of 0.2 M glycine (pH 10.6, Sigma). Absorbance at a wavelength of 405 nm was measured using a spectrometer. The concentration of histamine was measured using a HTRF histamine assay kit (Cisbio). 10 μl of a medium supernatant of the cells was treated with anti-histamine cryptate conjugate and histamine-d2 according to the manufacturer's manual at room temperature for 2 hours. Thereafter, fluorescence was measured at 665 nm and 620 nm and compensated by a ratio of 665 nm/620 nm, and then, the concentration of histamine in the cells was measured using a standard curve. […]

[3] = test system: oxazolone-induced atopic dermatitis animal model; assay: Oxazolone-induced atopic dermatitis animal model, skin thickness; assay type: in vivo, hairless mice; conditions: FIG. 7(A) and (B)
Method: (§1) In order to evaluate efficacy of the novel compound according to the present invention in an animal model, first, hairless mice were treated with oxazolone (Sigma), thereby establishing atopic dermatitis-like animal models. More specifically, on day 1, the mice were sensitized with 1% oxazolone in acetone on the back, and after 1 week, the mice were treated with 0.1% oxazolone in acetone on the back every other day for 2 weeks, thereby inducing atopic dermatitis-like symptoms. Thereafter, the compound (1%) according to the present invention was dissolved in a solution in which polyethylene glycol (PEG, Sigma) and ethanol were mixed with each other at a ratio of 7:3, and the mice were treated with the obtained compound solution on the back once in the morning and evening for 10 days. […] In addition, a skin thickness of each of the animal models was measured and illustrated by a graph. […] Therefore, the compound according to the present invention may be effective to treat atopic dermatitis.

[4] = test system: oxazolone-induced atopic dermatitis animal model; assay: IgE and histamine in blood in atopic dermatitis animal model; assay type: in vivo, hairless mice; conditions: for concentration of IgE antibody in the blood: FIG. 8(A); for concentration of histamine in the blood: FIG. 8(B)
Method: as §1
In order to evaluate efficacy of the novel compound according to the present invention in an atopic dermatitis animal model, after treating an oxazolone (Sigma)-induced atopic dermatitis animal model with the compound, concentrations of IgE antibody and histamine present in the blood were measured. The IgE and histamine in the blood are known as markers of atopic dermatitis and inflammatory dermatitis such as contact dermatitis, and as the disease aggregates, the concentrations thereof in the blood further increases. The increased IgE activated mast cells, and allowed the mast cells to release a large amount of inflammatory cytokines such as histamine.

[5] = target: T1, cannabinoid receptor 1 (CB1R) (Homo sapiens, UniProt P21554); assay: cAMP production suppression in CHO cells over-expressing CB1R (HTRF cAMP assay, forskolin-induced); assay type: cell-based; conditions: for concentration of cAMP: 0-50 μM compound, 10 μM forskolin, FIG. 1; for Modulation: Target CB1R
T1 construct: host or cells: CHO cells over-expressing CB1R
Source text: cAMP production suppression efficacy by agonistic action of the synthesized materials was confirmed using CHO cells in which cannabinoid receptor 1 (CB1R) was over-expressed.
The CHO cells in which the cannabinoid receptor 1 (CB1R) was over-expressed were purchased from Chantest, and cultured in an F-12 medium (Gibco) containing 10% fetal bovine serum (FBS, Gibco). In order to conform an agonistic activity of a ceramide derivative compounds according to the present invention on the cannabinoid receptor, the cells were plated in a 96-well dish, cultured for 24 hours, and then, treated at concentrations of 0, 0.781, 1.562, 3.125, 6.25, 12.5, 25, and 50 μM (0.1% DMSO in PBS). The cells were treated with 10 μM Forskolin (Sigma), thereby inducing cAMP production by adenylyl cyclase in the cells. A concentration of cAMP in the cells was measured using a HTRF cAMP assay kit purchased from Cisbio. After dissolving the cells with lysis buffer in the kit according to the manufacturer's manual, anti-cAMP cryptate conjugate and cAMP-d2 in the kit were treated at room temperature for 2 hours. Thereafter, fluorescence was measured at 665 nm and 620 nm and compensated by a ratio of 665 nm/620 nm, and then, the concentration of cAMP in the cells was measured using a standard curve. Since activity of adenylyl cyclase was suppressed when the cannabinoid receptor 1 (CB1R) was activated, the cannabinoid receptor agonist according to the present invention suppresses production of cAMP in the cells. […] As illustrated in the following Table 1, it may be confirmed that the novel cannabinoid receptor agonists according to the present invention activate the cannabinoid receptor 1 (CB1R) when EC50 was 24 to 26 μM.

[6] = test system: RBL-2H3 cells (rat basophilic leukemia cells); assay: Histamine release of mast cells activated by PAR-2 agonist SLIGRL; assay type: cell-based; conditions: FIG. 4
Method: The PAR-2, which is a receptor activated by protease (tryptase, chymase, and the like) present outside cells, induces degranulation on surfaces of the mast cells. In order to confirm whether or not the ceramide derivative compound according to the present invention suppresses activities of the mast cells by PAR-2, RBL-2H3 cells (rat basophilic leukemia cells) corresponding to one kind of mast cells were cultured in a DMEM medium containing 10% FBS in a 24-well plate, and then treated with the compound for 2 hours. Thereafter, in order to induce degranulation of the mast cells, the cells were treated with 10 μM SLIGRL peptide, which is a PAR-2 agonist, for 1 hour. The concentration of histamine released outside the cells was measured using a HTRF histamine assay kit (Cisbio). 10 μl of a medium supernatant of the cells was treated with anti-histamine cryptate conjugate and histamine-d2 according to the manufacturer's manual at room temperature for 2 hours. Thereafter, fluorescence was measured at 665 nm and 620 nm and compensated by a ratio of 665 nm/620 nm, and then, the concentration of histamine in the cells was measured using a standard curve. […] Therefore, the novel ceramide derivative according to the present invention, which is the novel cannabinoid receptor agonist, is a compound effectively suppressing the activities of the mast cells.

[7] = test system: oxazolone-induced atopic dermatitis animal model; assay: Mast cells in skin of atopic dermatitis animal model (toluidine blue staining); assay type: in vivo, hairless mice; conditions: FIG. 9
Method: In order to evaluate whether or not the novel compound according to the present invention suppresses the activities of mast cells in an atopic dermatitis animal model, first, hairless mice were treated with oxazolone (Sigma), thereby establishing an atopic dermatitis animal model. More specifically, on day 1, mice were sensitized with 1% oxazolone in acetone on the back, and after 1 week, the mice were treated with 0.1% oxazolone in acetone on the back every other day for 2 weeks, thereby inducing atopic dermatitis on the back skin of the mice. Thereafter, the compound (1%) according to the present invention was dissolved in a solution in which polyethylene glycol (PEG, Sigma) and ethanol were mixed with each other at a ratio of 7:3, and the mice were treated with the obtained compound solution on the back once in the morning and evening for 10 days. Then, skin biopsy was taken and stained with toluidine blue solution (Sigma), thereby confirming presence of mast cells. […] The mast cells in the skin as described above release various kinds of inflammatory cytokines, thereby aggregating atopic dermatitis. […] The number of mast cells present on the skin in each of the groups was statistically analyzed and illustrated by a graph. […]

T1 sequence (P21554 whole entry): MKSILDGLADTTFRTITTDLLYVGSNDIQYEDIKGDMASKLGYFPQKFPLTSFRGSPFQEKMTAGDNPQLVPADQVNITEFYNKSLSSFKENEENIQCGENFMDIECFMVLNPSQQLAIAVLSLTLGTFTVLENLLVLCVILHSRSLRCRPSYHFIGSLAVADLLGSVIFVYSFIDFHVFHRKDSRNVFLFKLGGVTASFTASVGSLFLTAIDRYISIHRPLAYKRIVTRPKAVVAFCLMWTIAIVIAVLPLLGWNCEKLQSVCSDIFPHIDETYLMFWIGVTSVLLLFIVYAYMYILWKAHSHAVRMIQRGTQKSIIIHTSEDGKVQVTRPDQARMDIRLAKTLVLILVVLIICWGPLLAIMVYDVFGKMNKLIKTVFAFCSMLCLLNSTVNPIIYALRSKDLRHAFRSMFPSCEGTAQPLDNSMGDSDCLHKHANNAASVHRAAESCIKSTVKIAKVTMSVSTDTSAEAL

CCCCCCCC/C=C\CCCCCCCC(=O)C(CCCCCC/C=C\CCCCCCCC)C(=O)NCCO (stereo not drawn) [CBS004, (11Z)-2-((Z)-hexadec-7-enyl)-N-(2-hydroxyethyl)-3-oxoicos-11-enamide]
activation of the mast cells by IgE antibody and antigen [1]: suppression effects | activation of mast cells by ionomycin [2]: suppression effects | skin damage [3]: repair effects | concentration of IgE antibody in the blood [4]: decrease effects | concentration of histamine in the blood [4]: decrease effects | concentration of cAMP [5]: decreased dependently on the concentration of the compound | Modulation [5]: Agonist | activation of mast cells by protease activated receptor 2 (PAR-2) [6]: suppression effects | invasion of mast cells in a lesion site [7]: suppressed

CCCCCCCC/C=C\CCCCCCCC(=O)C(CCCCCC/C=C\CCCCCCCC)C(=O)NC(CO)CO (stereo not drawn) [CBS007, (11Z)-2-((Z)-hexadec-7-enyl)-N-(1,3-dihydroxypropan-2-yl)-3-oxoicos-11-enamide]
activation of the mast cells by IgE antibody and antigen [1]: suppression effects | activation of mast cells by ionomycin [2]: suppression effects | skin damage [3]: repair effects | concentration of IgE antibody in the blood [4]: decrease effects | concentration of histamine in the blood [4]: decrease effects | concentration of cAMP [5]: decreased dependently on the concentration of the compound | Modulation [5]: Agonist | activation of mast cells by protease activated receptor 2 (PAR-2) [6]: suppression effects | invasion of mast cells in a lesion site [7]: suppressed
